Results reported in US9079913B2, “Spiro-oxindole MDM2 antagonists” (The Regents of the University of Michigan, priority 2009, dated 2015).
Like-named read-outs stand apart in the source and are kept apart here.

Columns and labels:
[1] = test system: Isogenic HCT-116 colon cancer cell lines; assay: cells; type: cell-based; conditions: Homo sapiens;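 further: cells grown in 96-well plates in McCoy's 5A medium with 10% FBS, exposed to compound for 4 days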
Experimental: Cells were seeded in 96-well flat bottom cell culture plates at a density of 2−3×10^3 cells/well with compounds and incubated for 4 days.

[2] = test system: cancer cell lines with wild-type p53 / mutated or deleted p53 (ATCC); assay: Cell growth assay (WST-8), other cancer cell lines; type: cell-based; conditions: Homo sapiens
[3] = biological target: recombinant human His-tagged MDM2 protein (residues 1-118) (Homo sapiens (Human), UniProt Q00987); assay: Fluorescence-polarization MDM2 binding assay;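 further: fluorescence polarization read after three hours of incubation in potassium phosphate buffer containing bovine gamma globulin and Triton X-100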
Experimental: The assay was performed in the buffer: 100 mM potassium phosphate, pH 7.5; 100 μg/mL bovine gamma globulin; 0.02% sodium azide, 0.01% Triton X-100) and the polarization values were measured after 3 h of incubation using an ULTRA READER (Tecan U.S. Inc., Research Triangle Park, N.C.). […] The Kd value was calculated using the equation: Kd value=IC50−L0/2.
The polarization values were measured after 3 h of incubation. […] Curve fitting was performed using [sequence] PRISM software (GraphPad Software, Inc., San Diego, Calif.). […] Compounds shown in Tables 19A-D as the free base were tested either as the free base or as the CF3CO2H (TFA) or HCl salt.

[4] = HCT-116, read-out: HCT-116 (p53-/-) IC50, Table 19A, HCT-116 p53-/-, cell growth
[5] = HCT-116, read-out: HCT-116 (p53 wild-type) IC50, Table 19A, HCT-116 p53 wild-type, cell growth
[6] = LNCaP, Table 19A, LNCAP cells, p53 wild-type, cell growth, read-out: LNCAP (p53 wild-type) IC50
[7] = PC-3, Table 19A, PC-3 cells, deleted p53, cell growth, read-out: PC-3 (deleted p53) IC50
[8] = SJSA-1, Table 19A, SJSA-1 cells, p53 wild-type, cell growth, read-out: SJSA-1 (p53 wild-type) IC50
[9] = Table 19A, FP binding assay, read-out: MDM2 IC50
[10] = HCT-116, read-out: HCT116p53KO IC50, Table 19D, HCT116 p53KO
[11] = HCT-116, read-out: HCT116p53WT IC50, Table 19D, HCT116 p53WT
[12] = LNCaP, Table 19D, LNCaP cells, read-out: LNCaP IC50
[13] = PC-3, Table 19D, PC3 cells, read-out: PC3 IC50
[14] = Table 19D, read-out: MDM2 Binding Affinities IC50
[15] = HCT-116, read-out: Inhibition of cell growth IC50, HCT116 p53 KO, Table 19B, HCT116 p53 KO
[16] = HCT-116, read-out: Inhibition of cell growth IC50, HCT116 p53 WT, Table 19B, HCT116 p53 WT
[17] = LNCaP, Table 19B, LNCaP cells, read-out: Inhibition of cell growth IC50, LNCaP
[18] = PC-3, Table 19B, PC3 cells, read-out: Inhibition of cell growth IC50, PC3
[19] = Table 19B, read-out: Binding affinities to MDM2 protein as determined by FP based assay IC50
[20] = HCT-116, read-out: Cell growth inhibition using WST assay, HCT116 p53KO IC50, Table 19C, HCT116 p53KO
[21] = HCT-116, read-out: Cell growth inhibition using WST assay, HCT116 p53WT IC50, Table 19C, HCT116 p53WT
[22] = LNCaP, Table 19C, LNCaP cells, read-out: Cell growth inhibition using WST assay, LNCaP IC50
[23] = PC-3, Table 19C, PC3 cells, read-out: Cell growth inhibition using WST assay, PC3 IC50
[24] = Table 19C, read-out: Bidning affinities to MDM2 as determined using FP assay IC50

recombinant human His-tagged MDM2 protein (residues 1-118), sequence (Q00987 1-118): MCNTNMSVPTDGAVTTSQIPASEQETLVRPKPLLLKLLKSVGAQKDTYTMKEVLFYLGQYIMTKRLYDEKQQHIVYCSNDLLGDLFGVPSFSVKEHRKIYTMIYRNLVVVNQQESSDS

Compound | IC50 [1, 4] [µM] | IC50 [1, 5] [µM] | IC50 [2, 6] [µM] | IC50 [2, 8] [µM] | IC50 [3, 9] [µM] | IC50 [1, 15] [µM] | IC50 [1, 16] [µM] | IC50 [2, 17] [µM] | IC50 [2, 18] [µM] | IC50 [3, 19] [µM] | other results
CC(C)(C)C[C@H]1N[C@@H](C(=O)NCC[C@](C)(O)CO)[C@H](c2cccc(Cl)c2F)[C@@]12C(=O)Nc1cc(Cl)ccc12 [MI-789] | > 10 | < 3 | < 3 | < 3 | < 3 |  |  |  |  |  | IC50 [2, 7]: > 10 µM
CC(C)(C)C[C@H]1N[C@@H](C(=O)NCC[C@H](O)CO)[C@H](c2ccc(F)c(F)c2)[C@@]12C(=O)Nc1cc(F)c(F)cc12 [MI-519-12] |  |  |  |  |  |  |  |  |  |  | IC50 [1, 10]: > 10 µM; IC50 [1, 11]: < 3 µM; IC50 [2, 12]: < 3 µM; IC50 [2, 13]: > 10 µM; IC50 [3, 14]: < 10 µM
CC(C)(C)C[C@H]1N[C@@H](C(=O)NC2CN(CC(C)(C)O)C2)[C@H](c2cccc(Cl)c2F)[C@@]12C(=O)Nc1cc(Cl)ccc12 [MI-909] | > 5 | < 3 | < 3 | < 3 | < 1 |  |  |  |  |  | IC50 [2, 7]: > 5 µM
CC(C)[C@H](N)C(=O)OC1CCC(NC(=O)[C@@H]2N[C@H](CC(C)(C)C)[C@]3(C(=O)Nc4cc(Cl)ccc43)[C@H]2c2cccc(Cl)c2F)CC1 (stereo partly shown) [MI-902] | 5.9 | < 3 | < 3 | < 3 | < 3 |  |  |  |  |  | IC50 [2, 7]: 4 µM
CC(C)(C)C[C@H]1N[C@@H](C(=O)NC2CCN(CCF)CC2)[C@H](c2cccc(Cl)c2F)[C@@]12C(=O)Nc1cc(Cl)ccc12 [MI-519-56] |  | < 1 | > 10 | < 1 | < 1 |  |  |  |  |  | 
CC(C)(C)C[C@H]1N[C@@H](C(=O)N2CCN(C(=O)C3CC3)CC2)[C@H](c2cccc(Cl)c2)[C@@]12C(=O)Nc1cc(Cl)c(F)cc12 [MI-743] |  |  |  |  |  | 5.7 ± 3.4 | 2.4 ± 0.2 | 2.5 ± 0.5 | 7.7 ± 3.1 | > 1 | 
CCCCC(C)(C)C[C@H]1N(C)[C@@H](C(=O)NCC[C@H](O)CO)[C@H](c2cccc(Cl)c2)[C@@]12C(=O)Nc1cc(Cl)c(F)cc12 [MI-728] |  |  |  |  |  | 16.9 ± 5.6 | 4 ± 0.8 | 2.1 ± 0.1 | 7.1 ± 2 | < 5 | 
CC(C)(C)C[C@H]1N[C@@H](C(=O)N[C@H]2CC[C@@H](N)C2)[C@H](c2cccc(Cl)c2F)[C@@]12C(=O)Nc1cc(Cl)ccc12 [MI-519-55] |  |  |  |  |  |  |  |  |  |  | IC50 [1, 10]: > 5 µM; IC50 [1, 11]: < 2 µM; IC50 [2, 12]: < 2 µM; IC50 [2, 13]: > 3 µM; IC50 ([2]; Table 19D, SJSA-1 cells, unit inferred, read-out: SJSA-1): < 3 µM; IC50 [3, 14]: < 1 µM
O=C(NCC[C@H](O)CO)[C@@H]1N[C@H](CCCc2ccccc2)[C@]2(C(=O)Nc3cc(Cl)c(F)cc32)[C@H]1c1cccc(Cl)c1 [MI-704] |  |  |  |  |  | 12.1 ± 1 | 3 ± 0.9 | 6.8 ± 0.2 | 18 ± 5.1 | > 1 | 
CCCN1CCN(CCNC(=O)[C@@H]2N[C@H](CC(C)(C)C)[C@]3(C(=O)Nc4cc(Cl)c(F)cc43)[C@H]2c2cccc(Cl)c2)CC1 [MI-519-21] |  |  |  |  |  |  |  |  |  |  | IC50 [1, 10]: 5.8 ± 1.9 µM; IC50 [1, 11]: 1.4 ± 0.5 µM; IC50 [2, 12]: 1.5 ± 0.6 µM; IC50 [2, 13]: 4.8 ± 0.4 µM; IC50 [3, 14]: < 3 µM
CC(C)(C)C[C@H]1N[C@@H](C(=O)NCC[C@H](O)CO)[C@H](c2cccc(Cl)c2F)[C@@]12C(=O)Nc1cc(F)c(F)cc12 [MI-519-10] |  |  |  |  |  |  |  |  |  |  | IC50 [1, 10]: > 10 µM; IC50 [1, 11]: < 3 µM; IC50 [2, 12]: < 3 µM; IC50 [2, 13]: > 10 µM; IC50 [3, 14]: < 3 µM
CC(C)(C)C[C@H]1N[C@@H](C(=O)NCC[C@H](O)CO)[C@H](c2cc(Cl)ccn2)[C@@]12C(=O)Nc1cc(Cl)c(F)cc12 [MI-319-35] |  |  |  |  |  |  |  |  |  |  | IC50 [1, 20]: > 10 µM; IC50 [1, 21]: 4.8 ± 0.5 µM; IC50 [2, 22]: 3.2 ± 0.3 µM; IC50 [2, 23]: > 10 µM; IC50 [3, 24]: < 10 µM
CC(C)(C)C[C@H]1N[C@@H](C(=O)NC2CN(CCO)C2)[C@H](c2cccc(Cl)c2F)[C@@]12C(=O)Nc1cc(Cl)ccc12 [MI-912] | > 10 | < 5 | < 5 | < 5 | < 3 |  |  |  |  |  | IC50 [2, 7]: > 5 µM
CC(O)C(O)CCNC(=O)[C@@H]1N[C@H](CC(C)(C)C)[C@]2(C(=O)Nc3cc(Cl)c(F)cc32)[C@H]1c1cccc(Cl)c1 (stereo partly shown) [MI-519-30] | 19.6 ± 5.2 | 1.3 ± 0.3 | 1.1 |  | < 2 |  |  |  |  |  | IC50 [2, 7]: 19.1 ± 2.4 µM
O=C(NCC[C@H](O)CO)[C@@H]1N[C@H](CCc2ccccc2)[C@]2(C(=O)Nc3cc(Cl)c(F)cc32)[C@H]1c1cccc(Cl)c1 [MI-701] |  |  |  |  |  | 33.8 ± 14.6 | 16.7 ± 13 | 3 ± 3.5 | 48.9 ± 22.4 | > 10 | 
CN1[C@@H](C(=O)NCC[C@H](O)CO)[C@H](c2cccc(Cl)c2F)[C@@]2(C(=O)Nc3cc(F)c(F)cc32)[C@H]1CC(C)(C)C [MI-718] |  |  |  |  |  | 47.2 ± 5 | 3 ± 1.1 | 3.7 ± 0.3 | 34.2 ± 0.4 | > 3 | 
CCC(C)(C)C[C@H]1N(C)[C@@H](C(=O)NCC[C@H](O)CO)[C@H](c2cccc(Cl)c2F)[C@@]12C(=O)Nc1cc(F)c(F)cc12 [MI-723] |  |  |  |  |  | 51.3 | 2.42 | 2.3 | 24.7 | < 5 | 
CCC(C)(C)C[C@H]1N[C@@H](C(=O)NCC[C@H](O)CO)[C@H](c2cccc(Cl)c2)[C@@]12C(=O)Nc1cc(Cl)c(F)cc12 [MI-720] |  |  |  |  |  | 19.5 ± 5.6 | 0.69 | 0.76 ± 0.1 | 15.2 ± 3.2 | < 1 | 
CC(C)CC(C)(C)C[C@H]1N[C@@H](C(=O)NCC[C@H](O)CO)[C@H](c2cccc(Cl)c2)[C@@]12C(=O)Nc1cc(F)c(F)cc12 [MI-735] |  |  |  |  |  | 8.5 ± 1.1 | 1.2 ± 0.3 | 1.1 ± 0.4 | 8.6 ± 0.9 | < 1 | 
O=C(NCC[C@H](O)CO)[C@@H]1N[C@H](CCCc2cccs2)[C@]2(C(=O)Nc3cc(Cl)c(F)cc32)[C@H]1c1cccc(Cl)c1 [MI-710] |  |  |  |  |  | 12.4 ± 1.2 | 1.3 ± 0.3 | 1.2 ± 0.2 | 12.4 ± 1.9 | > 1 | 
CN1[C@@H](C(=O)NCC[C@H](O)CO)[C@H](c2cccc(Cl)c2)[C@@]2(C(=O)Nc3cc(Cl)c(F)cc32)[C@H]1CCc1cccs1 [MI-714] |  |  |  |  |  | 7.5 ± 0.3 | 8.6 ± 0.1 | 4.3 | 7.7 ± 1.6 | > 10 | 
CC(C)(C)C[C@H]1N[C@@H](C(=O)NC2CCC(NS(=O)(=O)C(F)(F)F)CC2)[C@H](c2cccc(Cl)c2)[C@@]12C(=O)Nc1cc(Cl)c(F)cc12 (stereo partly shown) [MI-777] | 7.8 | 8.9 | 6.6 | 9.2 | < 5 |  |  |  |  |  | 
CC(C)CC(C)(C)C[C@H]1N[C@@H](C(=O)NCC[C@H](O)CO)[C@H](c2cccc(Cl)c2)[C@@]12C(=O)Nc1cc(Cl)c(F)cc12 [MI-725] |  |  |  |  |  | 5.8 ± 2.9 | 0.7 | 0.8 ± 0.1 | 4.7 ± 1 | < 1 | 
CC[C@H](C)[C@H](N)C(=O)OC1CCC(NC(=O)[C@@H]2N[C@H](CC(C)(C)C)[C@]3(C(=O)Nc4cc(Cl)ccc43)[C@H]2c2cccc(Cl)c2F)CC1 (stereo partly shown) [MI-904] | 6.1 | < 3 | < 3 | < 3 | < 1 |  |  |  |  |  | IC50 [2, 7]: 3.1 µM
CN(C)C[C@@H](O)CCNC(=O)[C@@H]1N[C@H](CC(C)(C)C)[C@]2(C(=O)Nc3cc(Cl)c(F)cc32)[C@H]1c1ccc(F)c(Cl)c1 [MI-319-28] |  |  |  |  |  |  |  |  |  |  | IC50 [1, 20]: > 5 µM; IC50 [1, 21]: < 5 µM; IC50 [2, 22]: < 5 µM; IC50 [2, 23]: > 5 µM; IC50 [3, 24]: < 5 µM
CC(C)(C)C[C@H]1N[C@@H](C(=O)NC2CCC(OC(=O)C(C)(C)N)CC2)[C@H](c2cccc(Cl)c2F)[C@@]12C(=O)Nc1cc(Cl)ccc12 (stereo partly shown) [MI-907] | 7 | < 3 | < 3 | < 3 | < 1 |  |  |  |  |  | IC50 [2, 7]: 3 µM
